Laboratory results from article PMC9137900, “Engineering Collariella virescens Peroxygenase for Epoxides Production from Vegetable Oil” (Antioxidants, 2022).
Residue numbers refer to the chain shown, from its start.

Legend:
Format in all cases: biochemical
[1] = biological target: T1, rCviUPO (native, non-mutated recombinant CviUPO) (Achaetomiella virescens, UniProt Z9FBJ6W4Y2, F87A); experiment: GC-MS quantification of oxygenated products, […] min reactions; conditions: substrate inhibition constant; 24 mM H2O2, 50 mM phosphate pH 7, 20% acetone
T1 construct: codon-optimized gene in pET23a, expressed in E. coli as active cytosolic enzyme without purification tag; heme-thiolate (EC 1.11.2.1); purified by cation exchange and Superdex 75
T1 sequence (Z9FBJ6W4Y2 1-226 F87A): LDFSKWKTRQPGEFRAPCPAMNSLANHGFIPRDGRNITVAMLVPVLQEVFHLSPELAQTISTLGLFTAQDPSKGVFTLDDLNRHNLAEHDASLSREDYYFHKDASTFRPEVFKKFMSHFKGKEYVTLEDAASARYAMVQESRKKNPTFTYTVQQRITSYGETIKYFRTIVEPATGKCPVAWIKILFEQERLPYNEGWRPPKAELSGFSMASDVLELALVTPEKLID

[2] = biological target: T2, rCviUPO (native, non-mutated recombinant CviUPO) (Achaetomiella virescens, UniProt Z9FBJ6W4Y2); experiment: as above; conditions: 24 mM H2O2, 50 mM phosphate pH 7, 20% acetone
T2 construct: codon-optimized gene in pET23a, expressed in E. coli as active cytosolic enzyme without purification tag; heme-thiolate (EC 1.11.2.1); purified by cation exchange and Superdex 75
T2 sequence (Z9FBJ6W4Y2 1-226): T1 sequence (Z9FBJ6W4Y2 1-226 F87A) with A87F

[3] = biological target: T3, rCviUPO (native, non-mutated recombinant CviUPO) (Achaetomiella virescens, UniProt Z9FBJ6W4Y2, F87A/T157A, form not given); experiment: as above; conditions: substrate inhibition constant; 24 mM H2O2, 50 mM phosphate pH 7, 20% acetone
T3 construct: codon-optimized gene in pET23a, expressed in E. coli as active cytosolic enzyme without purification tag; heme-thiolate (EC 1.11.2.1); purified by cation exchange and Superdex 75
T3 sequence (Z9FBJ6W4Y2 1-226 F87A/T157A): T1 sequence (Z9FBJ6W4Y2 1-226 F87A) with T157A

[4] = biological target: T1, rCviUPO (native, non-mutated recombinant CviUPO); experiment: as above; conditions: 24 mM H2O2, 50 mM phosphate pH 7, 20% acetone; substrate-inhibition model
[5] = biological target: T4, rCviUPO (native, non-mutated recombinant CviUPO) (Achaetomiella virescens, UniProt Z9FBJ6W4Y2, I60A/L63A/F87A/T157A, form not given); experiment: as above; conditions: 24 mM H2O2, 50 mM phosphate pH 7, 20% acetone; substrate-inhibition model
T4 construct: codon-optimized gene in pET23a, expressed in E. coli as active cytosolic enzyme without purification tag; heme-thiolate (EC 1.11.2.1); purified by cation exchange and Superdex 75
T4 sequence (Z9FBJ6W4Y2 1-226 I60A/L63A/F87A/T157A): T1 sequence (Z9FBJ6W4Y2 1-226 F87A) with I60A, L63A, T157A

[6] = biological target: T4, rCviUPO (native, non-mutated recombinant CviUPO); experiment: as above; conditions: substrate inhibition constant; 24 mM H2O2, 50 mM phosphate pH 7, 20% acetone
[7] = biological target: T3, rCviUPO (native, non-mutated recombinant CviUPO); experiment: as above; conditions: 24 mM H2O2, 50 mM phosphate pH 7, 20% acetone; substrate-inhibition model
[8] = biological target: T5, rCviUPO (native, non-mutated recombinant CviUPO) (Achaetomiella virescens, UniProt Z9FBJ6W4Y2, T157A); experiment: as above; conditions: 24 mM H2O2, 50 mM phosphate pH 7, 20% acetone
T5 construct: codon-optimized gene in pET23a, expressed in E. coli as active cytosolic enzyme without purification tag; heme-thiolate (EC 1.11.2.1); purified by cation exchange and Superdex 75
T5 sequence (Z9FBJ6W4Y2 1-226 T157A): T1 sequence (Z9FBJ6W4Y2 1-226 F87A) with A87F, T157A

[9] = biological target: T3, rCviUPO (native, non-mutated recombinant CviUPO); experiment: spectrophotometric initial rates, […] nm; conditions: 24 mM H2O2, 0.1 M acetate pH 3 or 5

| Compound | ki [1] [µM] | Km [2] [µM] | ki [3] [µM] | Km [4] [µM] | Km [5] [µM] | ki [6] [µM] | Km [7] [µM] | Km [8] [µM] | Km [9] [µM] |
| --- | --- | --- | --- | --- | --- | --- | --- | --- | --- |
| CCCCCCCC/C=C\CCCCCCCC(=O)O [C18:1, oleic acid] | 1120 ± 400 | 58.8 ± 6 | 2900 ± 610 | 278 ± 49 | 399 ± 94.6 | 1360 ± 710 | 51.6 ± 5.4 | 89 ± 16.4 | – |
| COc1ccc(CO)cc1OC [veratryl alcohol] | – | – | – | – | – | – | – | – | 15000 |
